Measurements as given in PubChem BioAssay (NCI).
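Cells were grown in 96-well plates and exposed to each compound for 48 hours at five concentrations; endpoints were interpolated linearly between bracketing concentrations, or set to the highest concentration if not reached. TGI: total growth inhibition.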

Key:
Experiment in all cases: NCI-60 cell line screen, 48 h
[1] = system: A498 renal
[2] = system: COLO 205 colon
[3] = system: HL-60(TB) leukemia
[4] = system: HOP-62 NSCLC
[5] = system: HOP-92 NSCLC
[6] = system: MDA-N
[7] = system: NCI/ADR-RES ovarian
[8] = system: PC-3 prostate
[9] = system: RXF 393 renal
[10] = system: SF-295 CNS
[11] = system: SN12C renal

Compound | TGI [1] | TGI [2] | TGI [3] | TGI [4] | TGI [5] | TGI [6] | TGI [7] | TGI [8] | TGI [9] | TGI [10] | TGI [11]
Cc1nn(-c2ccccc2)c2c1C(c1cc3ccccc3nc1Cl)NC(=O)N2 (stereo not drawn) | 62 µM | 41.1 µM | 52.6 µM | 54.4 µM | 32.1 µM | 37.2 µM | > 100 µM | 43.7 µM | 55.9 µM | 55.8 µM | 67.5 µM
Clc1ccc(-c2nnc3sc4nc5ccccc5c-4nn23)c(Cl)c1 | > 100 µM | > 100 µM | > 100 µM | > 100 µM | 68.8 µM | 82.6 µM | > 100 µM | > 100 µM | > 100 µM | > 100 µM | > 100 µM
O=C(O)CN1CCNCCN(CC(=O)O)CCN(CC(=O)O)CCNCC1 | > 100 µM | > 100 µM | 64.6 µM | > 100 µM | > 100 µM | > 100 µM | > 100 µM | > 100 µM | – | > 100 µM | > 100 µM
O=[N+]([O-])C(=C(Nc1ccccc1)Nc1ccccc1)C(Cl)=C(Cl)Cl | 26.2 µM | 34.1 µM | 27.7 µM | 44.7 µM | 33.9 µM | 27.2 µM | 58.2 µM | 29.6 µM | 31.8 µM | 36.4 µM | 35.5 µM
O=C(CCn1ccnc1[N+](=O)[O-])NCCCn1ccnc1[N+](=O)[O-] | > 100 µM | > 100 µM | > 100 µM | > 100 µM | – | > 100 µM | > 100 µM | > 100 µM | > 100 µM | > 100 µM | > 100 µM
CSc1cc(-c2cccs2)sc1-c1cc(SC)c(-c2sc(-c3sc(-c4cccs4)cc3SC)cc2SC)s1 | > 100 µM | > 100 µM | > 100 µM | > 100 µM | > 100 µM | > 100 µM | > 100 µM | > 100 µM | > 100 µM | > 100 µM | > 100 µM
O=C(O)c1ccccc1CC(Cc1ccc2c(c1)CCC2)C(=O)O (stereo not drawn) | > 100 µM | > 100 µM | > 100 µM | > 100 µM | > 100 µM | > 100 µM | > 100 µM | > 100 µM | > 100 µM | > 100 µM | > 100 µM
C=C1C(=O)CC2C1CC(=O)/C(C)=C/CCC(C)(O)C2O (stereo not drawn) | 48.4 µM | 7.49 µM | 10.1 µM | 43.7 µM | 15.8 µM | 2.86 µM | 28.3 µM | 23.3 µM | 11.6 µM | 47.8 µM | 5.32 µM
COC(=O)C(Cc1ccc2c(c1)CCC2)Cc1ccc2c(c1)CCC2 | > 100 µM | > 100 µM | 88.8 µM | > 100 µM | > 100 µM | > 100 µM | > 100 µM | > 100 µM | > 100 µM | > 100 µM | > 100 µM
C/C(C[n+]1ccccc1)=N\N=C(N)N | > 100 µM | > 100 µM | > 100 µM | > 100 µM | > 100 µM | > 100 µM | > 100 µM | > 100 µM | > 100 µM | > 100 µM | > 100 µM
